From PubChem BioAssay AID493040 (Abbott Labs, 2011)
Active and inactive are the calls of the source. How the calls were made is not given here.

What was measured:
Test in all cases: PubChem AID 493040
[1] = target: Serine/threonine-protein kinase PLK3 (Homo sapiens) (UniProt Q9H4B4); details: kinase panel binding, pKi
[2] = target: Serine/threonine-protein kinase Sgk2 (Homo sapiens) (UniProt Q9HBY8); details: kinase panel binding, pKi; SGK
[3] = target: Rho-associated protein kinase 2 (Homo sapiens) (UniProt O75116); details: kinase panel binding, pKi; ROCK2
Sequence of Rho-associated protein kinase 2 (Homo sapiens) (O75116 whole entry, looked up): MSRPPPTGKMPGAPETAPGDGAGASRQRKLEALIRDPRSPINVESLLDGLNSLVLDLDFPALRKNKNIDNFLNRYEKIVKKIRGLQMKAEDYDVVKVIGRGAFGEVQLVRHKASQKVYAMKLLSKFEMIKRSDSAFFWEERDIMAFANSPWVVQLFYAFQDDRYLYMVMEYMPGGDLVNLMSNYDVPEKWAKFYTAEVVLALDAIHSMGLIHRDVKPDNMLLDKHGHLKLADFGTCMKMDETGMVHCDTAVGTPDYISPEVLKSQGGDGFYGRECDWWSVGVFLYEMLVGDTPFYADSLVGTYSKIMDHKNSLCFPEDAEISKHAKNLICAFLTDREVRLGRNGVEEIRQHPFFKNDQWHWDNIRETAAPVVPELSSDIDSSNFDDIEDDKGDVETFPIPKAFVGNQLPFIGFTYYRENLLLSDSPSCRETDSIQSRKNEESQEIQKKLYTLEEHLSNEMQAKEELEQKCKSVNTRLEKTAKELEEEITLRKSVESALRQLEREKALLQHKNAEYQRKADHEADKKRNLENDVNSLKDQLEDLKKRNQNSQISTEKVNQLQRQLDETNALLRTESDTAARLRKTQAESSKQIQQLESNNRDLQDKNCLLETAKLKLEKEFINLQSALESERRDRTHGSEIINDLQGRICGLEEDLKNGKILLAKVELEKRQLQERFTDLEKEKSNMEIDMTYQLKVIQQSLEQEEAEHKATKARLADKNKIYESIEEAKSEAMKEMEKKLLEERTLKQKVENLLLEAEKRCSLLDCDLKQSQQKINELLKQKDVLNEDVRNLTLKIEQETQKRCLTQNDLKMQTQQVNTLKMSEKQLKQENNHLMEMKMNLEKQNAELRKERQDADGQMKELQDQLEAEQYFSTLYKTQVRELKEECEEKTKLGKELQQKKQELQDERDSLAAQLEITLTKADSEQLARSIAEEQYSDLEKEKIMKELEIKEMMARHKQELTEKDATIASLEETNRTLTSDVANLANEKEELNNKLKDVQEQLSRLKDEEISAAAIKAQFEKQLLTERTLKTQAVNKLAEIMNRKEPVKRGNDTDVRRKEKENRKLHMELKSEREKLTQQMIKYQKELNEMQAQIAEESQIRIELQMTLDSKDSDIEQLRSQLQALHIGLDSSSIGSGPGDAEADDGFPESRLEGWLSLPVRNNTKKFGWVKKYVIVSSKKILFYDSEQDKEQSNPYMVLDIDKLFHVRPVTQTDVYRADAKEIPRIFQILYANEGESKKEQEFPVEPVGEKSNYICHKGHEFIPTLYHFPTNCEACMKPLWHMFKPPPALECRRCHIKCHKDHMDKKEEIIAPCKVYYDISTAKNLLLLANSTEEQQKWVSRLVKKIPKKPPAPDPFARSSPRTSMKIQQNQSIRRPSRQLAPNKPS

[4] = target: Epidermal growth factor receptor (Homo sapiens) (UniProt P00533); details: kinase panel binding, pKi; EGFR
Sequence of Epidermal growth factor receptor (Homo sapiens) (P00533 whole entry, looked up): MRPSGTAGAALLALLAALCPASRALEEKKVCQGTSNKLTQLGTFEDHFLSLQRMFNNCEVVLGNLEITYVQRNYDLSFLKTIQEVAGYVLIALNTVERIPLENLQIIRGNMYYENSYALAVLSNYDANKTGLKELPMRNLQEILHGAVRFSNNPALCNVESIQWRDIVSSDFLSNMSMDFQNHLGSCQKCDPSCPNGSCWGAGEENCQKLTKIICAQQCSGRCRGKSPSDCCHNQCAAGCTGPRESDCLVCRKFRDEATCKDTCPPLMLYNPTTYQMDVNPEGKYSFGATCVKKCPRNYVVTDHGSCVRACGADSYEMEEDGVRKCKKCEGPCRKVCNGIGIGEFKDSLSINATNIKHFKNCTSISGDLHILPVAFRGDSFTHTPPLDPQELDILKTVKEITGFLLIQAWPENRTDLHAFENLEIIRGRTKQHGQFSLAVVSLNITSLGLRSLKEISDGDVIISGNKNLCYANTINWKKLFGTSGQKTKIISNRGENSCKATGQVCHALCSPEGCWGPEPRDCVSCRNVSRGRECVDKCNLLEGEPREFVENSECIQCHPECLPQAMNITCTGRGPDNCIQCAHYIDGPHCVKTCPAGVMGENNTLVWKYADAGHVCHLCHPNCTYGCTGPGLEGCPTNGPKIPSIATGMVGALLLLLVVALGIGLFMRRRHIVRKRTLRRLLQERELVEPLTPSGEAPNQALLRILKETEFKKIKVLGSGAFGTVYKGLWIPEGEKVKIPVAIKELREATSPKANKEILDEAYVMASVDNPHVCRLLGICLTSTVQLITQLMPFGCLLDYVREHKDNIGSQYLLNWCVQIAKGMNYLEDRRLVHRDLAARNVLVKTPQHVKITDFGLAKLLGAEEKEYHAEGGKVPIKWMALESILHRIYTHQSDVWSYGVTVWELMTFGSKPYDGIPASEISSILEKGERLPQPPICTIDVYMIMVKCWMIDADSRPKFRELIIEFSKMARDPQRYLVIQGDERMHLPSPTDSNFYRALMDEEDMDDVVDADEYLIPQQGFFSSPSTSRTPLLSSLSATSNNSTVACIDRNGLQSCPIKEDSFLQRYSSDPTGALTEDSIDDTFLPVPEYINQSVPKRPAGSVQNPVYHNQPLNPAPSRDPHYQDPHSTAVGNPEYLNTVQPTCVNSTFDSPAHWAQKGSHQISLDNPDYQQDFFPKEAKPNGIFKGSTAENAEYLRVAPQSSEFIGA

Sequence of Serine/threonine-protein kinase PLK3 (Homo sapiens) (Q9H4B4 whole entry, looked up): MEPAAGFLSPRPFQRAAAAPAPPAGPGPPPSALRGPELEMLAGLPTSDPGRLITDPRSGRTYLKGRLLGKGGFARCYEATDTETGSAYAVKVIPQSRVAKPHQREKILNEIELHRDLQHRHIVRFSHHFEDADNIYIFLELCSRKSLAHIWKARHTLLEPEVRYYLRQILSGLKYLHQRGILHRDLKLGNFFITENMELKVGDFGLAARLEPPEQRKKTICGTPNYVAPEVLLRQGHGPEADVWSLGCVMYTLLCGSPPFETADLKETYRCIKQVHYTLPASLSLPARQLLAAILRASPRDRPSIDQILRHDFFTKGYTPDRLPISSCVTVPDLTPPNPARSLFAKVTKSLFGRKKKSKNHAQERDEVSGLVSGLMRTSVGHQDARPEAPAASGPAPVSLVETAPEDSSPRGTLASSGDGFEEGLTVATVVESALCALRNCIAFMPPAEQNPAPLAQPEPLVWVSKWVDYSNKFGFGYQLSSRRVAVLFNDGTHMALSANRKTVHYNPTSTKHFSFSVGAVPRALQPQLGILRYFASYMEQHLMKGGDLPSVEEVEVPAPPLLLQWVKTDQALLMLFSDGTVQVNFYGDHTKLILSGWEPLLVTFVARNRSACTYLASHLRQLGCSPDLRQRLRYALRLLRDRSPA
Sequence of Serine/threonine-protein kinase Sgk2 (Homo sapiens) (Q9HBY8 whole entry, looked up): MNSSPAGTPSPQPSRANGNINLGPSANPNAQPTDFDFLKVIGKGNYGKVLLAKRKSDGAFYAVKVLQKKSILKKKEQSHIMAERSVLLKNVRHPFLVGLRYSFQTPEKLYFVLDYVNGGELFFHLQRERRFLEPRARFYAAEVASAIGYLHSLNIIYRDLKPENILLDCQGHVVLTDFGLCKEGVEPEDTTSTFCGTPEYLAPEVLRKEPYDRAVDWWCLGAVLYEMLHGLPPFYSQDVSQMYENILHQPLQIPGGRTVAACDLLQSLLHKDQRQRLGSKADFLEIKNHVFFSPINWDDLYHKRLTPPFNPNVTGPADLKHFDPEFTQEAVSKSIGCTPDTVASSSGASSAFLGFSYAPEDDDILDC

Ki [1]: 7.94 nM
Ki [2]: > 10000 nM (inactive)
Ki [3]: > 7940 nM (inactive)
Ki [4]: 251 nM
Compound: COc1cc2ncn(-c3cc(OCc4ccccc4C(F)(F)F)c(C(N)=O)s3)c2cc1OC
